Laboratory results: patent US8669347B2, “Truncated variant of the mammalian target for rapamycin (MTOR) protein” (UCL Business PLC, priority 2007, dated 2014)

System: Hek293 stable cell lines
Assay: Cell proliferation assay (Resazurin based) of Hek293 stable cell lines
Parameters: species or system human
Details: overexpressing stable lines grown 7 days, six independent studies
Protocol: Hek293 stable cell lines, over-expressing mTORβ wt, mTORα wt or EGFP were seeded into a 96 well plate at various densities (250, 500, 1000 and 2000 cells per well) and grown under standard conditions for 7 days. Cell numbers were than measured in each well by a Resosurin based assay. Normalized growth curves for each cell line were calculated using data from six independent experiments (A). Western blot analysis of total cell lysates of stable cell lines with antibodies to c-myc and its transcription targets (B). The level of proteins was densitometrically measured, actin normalized and folds were calculated against EGFP expressing stable cell line (C).
HEK293 stable cell lines, overexpressing mTORβ wt, mTORβ kinase-dead or EGFP were seeded into 96 well plate at various densities (1000, 2000, 4000 and 8000 cells per well) and grown under standard conditions for 5 days. Cell numbers were then measured in each well by Resazurin based assay. Normalized growth curves for each cell line were calculated using data from six independent experiments (A). Western blot analysis of total cell lysates of stable cell lines with antibodies to c-myc and its transcription targets. The level of proteins was densitometrically measured, actin normalized and folds were calculated against EGFP expressing stable cell line (B). […]

Substance: mTORα wt: full-length mammalian target for rapamycin protein, approximately 2549 amino acids (SEQ ID NO: 4)
- proliferation compared to control (EGFP) cells: no difference in proliferation
